Assay results taken from patent US20140113949A1, “METHODS FOR REDUCING NEURODEGENERATION” (NESTEC S.A., priority 2011, published 2014).

Columns and labels:
mTOR = mTOR mRNA expression by semi-quantitative qPCR in MDCK cells; format: cell-based, Canine; conditions: mRNA normalized to TATA box binding protein
Experimental: (§1) Cell Culture procedure: Commercially available Madin Darby Canine Kidney (MDCK) cells were obtained from ATCC as a stock suspension of immortalized cells. MDCK cells were cultured at 37° C. in an atmosphere of 95% air/5% CO2 and Dulbecco's Modified Eagle Medium (DMEM) media containing 10% fetal calf serum and 1% antibiotic/antimicrobial solution (DMEM-loaded). The media was changed and cells passed every 1 to 2 days using a solution containing 0.05% trypsin. For RNA extraction, cells were plated at a seeding density of 50,000 to 60,000 cells/cm^2 in 35 mm dishes. Twenty-four hours after seeding, media was changed to either control (DMEM-loaded) or test media (DMEM-loaded+1 nM melatonin). Cells were harvested 1, 3, or 5 days after exposure to control or test media. Media was changed in the remaining dishes on the days of cell harvesting. Total RNA was harvested from MDCK cell lysates using RNAlater RNA stabilization reagent and following the manufacturer's directions (Ambion, Austin, Tex.). mRNA transcripts of mTOR, S6 Kinase, and TATA box binding protein genes were analyzed by semi-quantitative qPCR on days 1, 3, and 5 of media treatment. TATA box binding protein gene transcript was used to normalize the expression of mTOR and S6 Kinase, as it is widely used as a “housekeeping” gene. The procedure in Example 1 was repeated.

S6 Kinase = S6 Kinase mRNA expression by semi-quantitative qPCR in MDCK cells; format: cell-based, Canine; conditions: mRNA normalized to TATA box binding protein
Experimental: as §1

[1] = Trial 1, Day 1, control media + 1 nM melatonin
[2] = Trial 1, Day 3, control media + 1 nM melatonin
[3] = Trial 1, Day 5, control media + 1 nM melatonin
[4] = Trial 2, Day 1, control media + 1 nM melatonin
[5] = Trial 2, Day 3, control media + 1 nM melatonin
[6] = Trial 2, Day 5, control media + 1 nM melatonin

COc1ccc2[nH]cc(CCNC(C)=O)c2c1 [melatonin, 5-methoxy-N-acetyltryptamine]
mTOR Induction (mTOR; [1]): 0.93 | mTOR Induction (mTOR; [2]): 0.76 | mTOR Induction (mTOR; [3]): 0.49 | mTOR Induction (mTOR; [4]): 0.98 | mTOR Induction (mTOR; [5]): 1.02 | mTOR Induction (mTOR; [6]): 1.01 | S6 Kinase Induction (S6 Kinase; [1]): 1.14 | S6 Kinase Induction (S6 Kinase; [2]): 0.66 | S6 Kinase Induction (S6 Kinase; [3]): 0.51 | S6 Kinase Induction (S6 Kinase; [4]): 1.05 | S6 Kinase Induction (S6 Kinase; [5]): 0.82 | S6 Kinase Induction (S6 Kinase; [6]): 0.75
